The text below walks through data of patent publication EP4512806A1, “MOLECULAR GLUE DEGRADERS AND USES THEREOF” (Mablink Bioscience, priority 2023, dated 2025).

The target of this assay is T1, CycK (Homo sapiens, UniProt O75909).
T1 construct: endogenous in cells; host or cells: JIMT-1
Kind of assay: CycK protein quantification by Western Blot in JIMT-1 cells. The class given is cell-based. Here is the method: 1×10^6 JIMT-1 cells were plated in 3mL of DMEM/FBS 90:10 (v/v) in 6-well plates and incubated overnight. Cells were treated with the compound 2384 of the invention with or without the proteasome inhibitor MG-132 (MedChemExpress, Cat HY-13259) for 2h. Cells were harvested, and protein were extracted using complete RIPA buffer (RIPA buffer, 1 mM DTT, 1M NaF, 100 mM sodium orthovanadate, phosphatase inhibitor buffer and protease inhibitors) for 1 hour on ice. Lysate were centrifuged 15min at 12 000g at 4°C. and proteins were mixed with 4x Laemmli Sample Buffer (Bio-Rad), heated at 95 °C for 5 mins and separated by SDS PAGE (PROTEAN TGX Stain-Free Gels, Bio-Rad). Proteins were then transferred onto PVDF membrane (iBlot®2 PVDF stacks, Invitrogen) using the iBlot2 device (Invitrogen) and blocked with TBS buffer (Intercept® Blocking Buffer, LI-COR Biosciences). Primary antibodies were incubated overnight at 4°C and secondary antibodies (IRDye Infrared Dyes from LI-COR Biosciences) 1 hour at room temperature. Used primary antibody were: anti-CycK (cat#A301-939A, Bethyl Laboratories, dil. 1:1000) and anti-β-actin (cat#A5441, Sigma-Aldrich, dil. 1:5000). Membranes were scanned using a c500 Imaging System (Azure Biosystems) and densitometric quantification were performed using imaged software. Protein levels were normalized against β-actin.

T1 sequence (O75909 whole entry): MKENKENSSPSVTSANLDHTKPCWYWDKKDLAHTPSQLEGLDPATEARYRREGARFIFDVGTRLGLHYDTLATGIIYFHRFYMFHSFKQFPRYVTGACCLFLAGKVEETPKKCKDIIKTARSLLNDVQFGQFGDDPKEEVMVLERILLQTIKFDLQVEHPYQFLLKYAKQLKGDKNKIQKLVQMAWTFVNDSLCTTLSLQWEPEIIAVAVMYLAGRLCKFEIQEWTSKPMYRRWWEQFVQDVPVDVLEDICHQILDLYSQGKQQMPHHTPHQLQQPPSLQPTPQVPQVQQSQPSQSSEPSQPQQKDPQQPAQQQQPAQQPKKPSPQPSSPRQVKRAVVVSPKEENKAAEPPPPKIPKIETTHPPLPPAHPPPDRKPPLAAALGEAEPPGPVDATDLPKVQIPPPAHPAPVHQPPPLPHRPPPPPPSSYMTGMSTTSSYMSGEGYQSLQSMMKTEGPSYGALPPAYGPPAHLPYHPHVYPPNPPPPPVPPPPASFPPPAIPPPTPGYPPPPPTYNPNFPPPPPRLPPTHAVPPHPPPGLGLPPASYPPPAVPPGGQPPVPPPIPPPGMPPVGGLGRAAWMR
T1 sequence (Q9NYV4 whole entry partner): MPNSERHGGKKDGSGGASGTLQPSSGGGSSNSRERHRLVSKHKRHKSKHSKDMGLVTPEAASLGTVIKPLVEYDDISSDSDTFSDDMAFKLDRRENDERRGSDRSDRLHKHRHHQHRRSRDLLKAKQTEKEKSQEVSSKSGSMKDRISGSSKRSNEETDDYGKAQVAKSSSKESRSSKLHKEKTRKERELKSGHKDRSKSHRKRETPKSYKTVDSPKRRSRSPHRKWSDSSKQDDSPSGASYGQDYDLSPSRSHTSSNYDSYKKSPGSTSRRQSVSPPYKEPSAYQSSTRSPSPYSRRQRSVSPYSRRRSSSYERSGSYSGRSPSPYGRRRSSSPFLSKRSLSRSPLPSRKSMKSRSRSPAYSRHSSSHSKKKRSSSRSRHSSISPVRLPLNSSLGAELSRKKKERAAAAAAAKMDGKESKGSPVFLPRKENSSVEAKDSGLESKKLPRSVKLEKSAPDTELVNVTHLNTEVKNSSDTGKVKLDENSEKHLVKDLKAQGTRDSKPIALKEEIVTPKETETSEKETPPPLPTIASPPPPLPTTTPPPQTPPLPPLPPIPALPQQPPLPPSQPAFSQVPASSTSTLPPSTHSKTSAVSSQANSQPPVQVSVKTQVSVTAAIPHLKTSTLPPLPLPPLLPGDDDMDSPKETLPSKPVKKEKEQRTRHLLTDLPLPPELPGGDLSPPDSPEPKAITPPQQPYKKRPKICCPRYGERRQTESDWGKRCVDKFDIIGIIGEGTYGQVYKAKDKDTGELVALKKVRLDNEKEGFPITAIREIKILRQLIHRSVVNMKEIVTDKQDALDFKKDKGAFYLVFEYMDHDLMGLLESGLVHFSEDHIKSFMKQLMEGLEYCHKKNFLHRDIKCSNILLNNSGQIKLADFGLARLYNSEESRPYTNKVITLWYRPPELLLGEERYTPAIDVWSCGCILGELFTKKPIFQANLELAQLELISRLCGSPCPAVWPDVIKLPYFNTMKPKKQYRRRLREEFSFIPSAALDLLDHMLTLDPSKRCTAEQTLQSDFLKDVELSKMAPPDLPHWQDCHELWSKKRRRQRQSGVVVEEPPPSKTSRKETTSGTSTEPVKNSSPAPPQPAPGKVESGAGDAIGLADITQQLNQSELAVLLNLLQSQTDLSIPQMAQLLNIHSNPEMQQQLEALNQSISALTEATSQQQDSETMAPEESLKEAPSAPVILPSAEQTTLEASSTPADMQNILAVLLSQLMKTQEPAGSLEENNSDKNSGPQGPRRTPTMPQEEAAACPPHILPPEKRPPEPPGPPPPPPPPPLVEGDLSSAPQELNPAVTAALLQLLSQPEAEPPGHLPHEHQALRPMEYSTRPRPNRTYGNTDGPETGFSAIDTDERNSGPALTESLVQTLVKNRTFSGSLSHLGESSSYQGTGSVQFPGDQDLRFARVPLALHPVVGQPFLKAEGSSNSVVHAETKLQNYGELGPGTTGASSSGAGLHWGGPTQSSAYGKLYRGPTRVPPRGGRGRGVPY
T1 sequence (Q16531 whole entry partner): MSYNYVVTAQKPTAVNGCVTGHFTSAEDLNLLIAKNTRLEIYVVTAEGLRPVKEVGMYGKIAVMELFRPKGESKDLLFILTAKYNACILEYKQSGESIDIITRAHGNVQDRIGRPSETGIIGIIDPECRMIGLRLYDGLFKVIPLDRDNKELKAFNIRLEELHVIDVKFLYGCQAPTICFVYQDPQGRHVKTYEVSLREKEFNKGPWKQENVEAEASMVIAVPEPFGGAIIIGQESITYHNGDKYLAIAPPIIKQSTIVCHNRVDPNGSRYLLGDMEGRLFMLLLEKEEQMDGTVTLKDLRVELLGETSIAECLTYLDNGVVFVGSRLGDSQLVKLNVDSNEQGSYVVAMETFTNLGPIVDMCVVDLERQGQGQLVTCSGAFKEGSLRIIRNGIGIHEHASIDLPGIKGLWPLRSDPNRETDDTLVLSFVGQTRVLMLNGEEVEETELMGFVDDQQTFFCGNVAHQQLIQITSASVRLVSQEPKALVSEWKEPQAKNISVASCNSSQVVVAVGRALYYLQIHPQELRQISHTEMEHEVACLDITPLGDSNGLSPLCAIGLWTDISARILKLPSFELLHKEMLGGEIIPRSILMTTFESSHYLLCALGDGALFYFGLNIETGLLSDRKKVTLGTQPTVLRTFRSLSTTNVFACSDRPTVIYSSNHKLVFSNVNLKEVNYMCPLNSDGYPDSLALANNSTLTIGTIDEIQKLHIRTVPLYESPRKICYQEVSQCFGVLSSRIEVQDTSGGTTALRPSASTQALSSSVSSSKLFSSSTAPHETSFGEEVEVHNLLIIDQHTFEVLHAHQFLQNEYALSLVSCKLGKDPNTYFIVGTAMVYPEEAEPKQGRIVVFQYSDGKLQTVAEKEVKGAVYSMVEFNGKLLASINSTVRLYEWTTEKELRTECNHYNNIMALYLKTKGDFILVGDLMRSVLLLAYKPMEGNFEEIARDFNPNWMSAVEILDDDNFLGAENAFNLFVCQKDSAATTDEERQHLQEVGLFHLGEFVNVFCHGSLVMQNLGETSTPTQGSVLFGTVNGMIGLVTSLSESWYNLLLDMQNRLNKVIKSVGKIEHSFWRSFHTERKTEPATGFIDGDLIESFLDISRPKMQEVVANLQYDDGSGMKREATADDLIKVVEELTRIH

For `N[C@H]1CC[C@H](Nc2nc(NCc3ccc(-c4ccccn4)cc3)n3ncc(Br)c3n2)CC1` [Compound 2384], the CycK protein content entry (1µM final concentration, 2h) is recorded as “decreased CycK protein content”. Moreover, the “minimum effective dose for CycK degradation, times lower than that of CR8” value (2h treatment) is “approximately 10 times”. The “concentration inducing complete CycK degradation” value (2h treatment, decreasing doses) was 10 nM.
